Laboratory results published in publication PMC8840488, “Antidiabetic Activity and In Silico Molecular Docking of Polyphenols from Ammannia baccifera L. subsp. Aegyptiaca (Willd.) Koehne Waste: Structure Elucidation of Undescribed Acylated Flavonol Diglucoside” (Plants, 2022).

Tests used:
DPPH antioxidant assay = assay: DPPH antioxidant assay
Description: The assay was carried out for AEEE and isolated phenolics according to Brand-Williams et al..

ORAC antioxidant assay = assay: ORAC antioxidant assay
Source text: The antioxidant assay was applied to AEEE and the isolated phenolics.

Reducing power assay = assay: Reducing power assay
Description: In the reducing-power assay, the more antioxidant compounds convert the oxidated form of iron (Fe^+3) in ferric chloride to ferrous (Fe^+2), which leads to an increase in colored ferrous-TPTZ complexes.
The assay was carried out on AEEE and the isolated phenolics (DeGraft-Johnson et al., 2007).

α-amylase = biological target: T1, α-amylase (Homo sapiens, UniProt P04746); assay: In vitro α-amylase inhibition; type: biochemical; conditions: for IC50: concentration range 75–600 µg/mL
T1 construct: purchased Sigma-Aldrich (Merck, Darmstadt, Germany)
T1 sequence (P04746 16-511): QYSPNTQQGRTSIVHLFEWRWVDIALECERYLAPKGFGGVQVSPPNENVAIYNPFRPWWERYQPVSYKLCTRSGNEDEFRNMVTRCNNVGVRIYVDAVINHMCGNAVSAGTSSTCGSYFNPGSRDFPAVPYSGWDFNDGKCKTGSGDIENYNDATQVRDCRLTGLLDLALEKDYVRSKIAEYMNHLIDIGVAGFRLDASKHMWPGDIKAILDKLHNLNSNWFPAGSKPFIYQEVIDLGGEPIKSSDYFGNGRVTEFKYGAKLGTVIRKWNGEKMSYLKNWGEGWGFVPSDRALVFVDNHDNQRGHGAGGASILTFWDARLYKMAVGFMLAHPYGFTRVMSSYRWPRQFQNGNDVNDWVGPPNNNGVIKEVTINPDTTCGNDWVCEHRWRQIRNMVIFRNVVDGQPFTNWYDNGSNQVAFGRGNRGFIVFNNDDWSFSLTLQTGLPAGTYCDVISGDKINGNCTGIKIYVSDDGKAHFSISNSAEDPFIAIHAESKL
Source text: The assay was implemented in accordance with. […] The percentage of inhibition can be estimated using the following Equation: 100−[{A sample/ Acontrol ×100]

β-glucosidase = assay: In vitro β-glucosidase inhibition; type: biochemical; conditions: for β-glucosidase IC50: concentration range 75–600 µg/mL
Description: The assay was performed in conformity with and used the same formula for amylase.

pancreatic lipase = biological target: T2, pancreatic lipase (Homo sapiens, UniProt P16233); assay: In vitro pancreatic lipase inhibition; type: biochemical; conditions: for IC50: concentration range 12–100 µg/mL
T2 sequence (P16233 17-465): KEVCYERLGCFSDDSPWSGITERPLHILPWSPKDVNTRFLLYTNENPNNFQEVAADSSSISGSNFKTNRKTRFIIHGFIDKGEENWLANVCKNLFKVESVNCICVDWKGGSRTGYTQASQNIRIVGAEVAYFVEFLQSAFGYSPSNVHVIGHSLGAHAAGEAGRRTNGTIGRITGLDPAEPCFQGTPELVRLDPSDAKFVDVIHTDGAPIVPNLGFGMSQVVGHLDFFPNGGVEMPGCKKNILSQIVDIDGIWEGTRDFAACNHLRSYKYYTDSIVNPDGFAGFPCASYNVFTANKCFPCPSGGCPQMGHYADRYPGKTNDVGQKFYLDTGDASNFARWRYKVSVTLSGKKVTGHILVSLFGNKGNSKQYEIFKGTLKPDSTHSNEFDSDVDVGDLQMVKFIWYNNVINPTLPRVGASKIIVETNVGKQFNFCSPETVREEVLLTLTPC
Description: The determination of the percentage inhibition of pancreatic lipase was calculated as prescribed by Hegazi et al., using the same formula for amylase.

| Structure (SMILES) | DPPH IC50 (DPPH antioxidant assay) | ORAC IC50 (ORAC antioxidant assay) | Ferrous reducing assay IC50 (Reducing power assay) | inhibition at 300 µg/mL (α-amylase) | IC50 (α-amylase) | β-glucosidase % Inhibition (β-glucosidase; at 300 µg/mL) | β-glucosidase IC50 (β-glucosidase) | IC50 (pancreatic lipase) | β-glucosidase % Inhibition (β-glucosidase; at 600 µg/mL) | Reducing power (Reducing power assay; compared with quercetin as standard) | inhibition at 100 µg/mL (pancreatic lipase) |
| --- | --- | --- | --- | --- | --- | --- | --- | --- | --- | --- | --- |
| O=C(OC[C@H]1O[C@@H](Oc2c(-c3cc(O)c(O)c(O)c3)oc3cc(O[C@@H]4O[C@H](CO)[C@@H](O)[C@H](O)[C@H]4O)cc(O)c3c2=O)[C@H](O)[C@@H](O)[C@@H]1O)c1cc(O)c(O)c(O)c1 [Compound 1, myricetin 3-O-β-^4C1-(6′′-O-galloyl glucopyranoside)-7-O-β-^4C1-glucopyranoside] | 2.37 ± 0.56 µg/mL | 2.01 ± 0.23 µg/mL | 158.13 ± 2.82 µg/mL | 91.4 ± 2.45% | 198 µM | 92.70 ± 1.42 % | 72.77 ± 2.67 µg/mL | 40.3 µM |  | comparable to that of standard quercetin | 87 ± 2.38% |
| O=C(O[C@@H]1[C@@H](OC(=O)c2cc(O)c(O)c(O)c2)[C@H](O)O[C@@H]2COC(=O)c3cc(O)c(O)c(O)c3-c3c(cc(O)c(O)c3O)C(=O)O[C@@H]12)c1cc(O)c(O)c(O)c1 [Compound 4, tellimagranidine-I] | 4.64 ± 0.39 µg/mL | 4.14 ± 1.27 µg/mL |  | 78.9 ± 4.13% | 276 µM | 58.44 ± 3.61 % | 115.21 ± 4.90 µg/mL | 343 µM |  |  | 19.5 ± 4.36% |
| C[C@@H]1O[C@@H](OC[C@H]2O[C@@H](Oc3c(-c4ccc(O)cc4)oc4cc(O)cc(O)c4c3=O)[C@H](O)[C@@H](O)[C@@H]2O)[C@H](O)[C@H](O)[C@H]1O [Compound 2, kaempfeol 3-O-rutinoside] | > 100 ± 13.67 µg/mL | > 100 ± 10.17 µg/mL |  | 80.4 ± 3.81% | 348 µM |  |  | 228 µM |  |  | 35.8 ± 3.84% |
| C[C@H]1O[C@H](O[C@H]2[C@H](O)[C@@H](O)[C@@H](O[C@H]3[C@H](O)[C@@H](O)C(O)O[C@@H]3CO)O[C@@H]2CO)[C@H](O)[C@@H](O)[C@@H]1N[C@H]1C=C(CO)[C@@H](O)[C@H](O)[C@H]1O (stereo partly drawn) [Acarbose, reference compound] |  |  |  |  |  |  | 110.6 ± 3.20 µg/mL |  | 95.2 ± 2.30% |  |  |
| CCCCCCCCCCC[C@@H](C[C@@H]1OC(=O)[C@H]1CCCCCC)OC(=O)[C@H](CC(C)C)NC=O [Orlistat, reference compound] |  |  |  |  |  |  |  |  |  |  | 57 ± 4.5% |
| C[C@@H]1O[C@@H](OC[C@H]2O[C@@H](Oc3c(-c4ccc(O)c(O)c4)oc4cc(O)cc(O)c4c3=O)[C@H](O)[C@@H](O)[C@@H]2O)[C@H](O)[C@H](O)[C@H]1O [Compound 3, quercetin 3-O-rutinoside] | 8.81 ± 1.05 µg/mL | 8.02 ± 0.85 µg/mL |  | 72.1 ± 3.49% | 366 µM | 66 ± 3.47 % | 104 ± 3.80 µg/mL | 66.2 µM |  |  | 82.2 ± 2.53% |

Second part, led by results:

| DPPH IC50 (DPPH antioxidant assay) | ORAC IC50 (ORAC antioxidant assay) | Ferrous reducing assay IC50 (Reducing power assay) | inhibition at 300 µg/mL (α-amylase) | IC50 (α-amylase) | β-glucosidase % Inhibition (β-glucosidase; at 300 µg/mL) | β-glucosidase IC50 (β-glucosidase) | IC50 (pancreatic lipase) | β-glucosidase % Inhibition (β-glucosidase; at 600 µg/mL) | Structure (SMILES) | Reducing power (Reducing power assay; compared with quercetin as standard) | inhibition at 100 µg/mL (pancreatic lipase) |
| --- | --- | --- | --- | --- | --- | --- | --- | --- | --- | --- | --- |
| 4.81 ± 0.73 µg/mL | 4.43 ± 0.68 µg/mL |  | 78 ± 1.15% | 448 µM | 68.43 ± 2.30 % | 100.23 ± 3.80 µg/mL | 549 µM |  | O=C(O[C@H]1[C@H](O)[C@@H](CO)OC(O)[C@@H]1OC(=O)c1cc(O)c(O)c(O)c1)c1cc(O)c(O)c(O)c1 (stereo partly drawn) [Compound 5, 2,3-α, β-digalloy glucose] |  | 18.7 ± 3.1% |
|  | 28.0 ± 14.31 µg/mL |  |  |  |  |  |  |  | Cc1c(C)c2c(c(C)c1O)CCC(C)(C(=O)O)O2 (stereo not drawn) [Trolox, reference compound] |  |  |
| 1.83 ± 1.41 µg/mL |  |  |  |  |  |  |  |  | O=C1O[C@H]([C@@H](O)CO)C(O)=C1O [Vitamin C, reference compound] |  |  |
